Key:
Format in all cases: binding
Conditions in all cases: Compound Concentration 10 µM
panel of 442 kinases [1] = target: T1, panel of 442 kinases (Homo sapiens, UniProt P21127)
T1 construct: purchased KINOMEscan
Description: (§1) We assessed the selectivity of members of this scaffold using the KINOMEscan methodology across a near comprehensive panel of 442 kinases [[18,27]].

panel of 442 kinases [2] = target: T2, panel of 442 kinases (Homo sapiens, UniProt Q08881)
T2 construct: purchased KINOMEscan
T2 sequence (Q08881 1-620): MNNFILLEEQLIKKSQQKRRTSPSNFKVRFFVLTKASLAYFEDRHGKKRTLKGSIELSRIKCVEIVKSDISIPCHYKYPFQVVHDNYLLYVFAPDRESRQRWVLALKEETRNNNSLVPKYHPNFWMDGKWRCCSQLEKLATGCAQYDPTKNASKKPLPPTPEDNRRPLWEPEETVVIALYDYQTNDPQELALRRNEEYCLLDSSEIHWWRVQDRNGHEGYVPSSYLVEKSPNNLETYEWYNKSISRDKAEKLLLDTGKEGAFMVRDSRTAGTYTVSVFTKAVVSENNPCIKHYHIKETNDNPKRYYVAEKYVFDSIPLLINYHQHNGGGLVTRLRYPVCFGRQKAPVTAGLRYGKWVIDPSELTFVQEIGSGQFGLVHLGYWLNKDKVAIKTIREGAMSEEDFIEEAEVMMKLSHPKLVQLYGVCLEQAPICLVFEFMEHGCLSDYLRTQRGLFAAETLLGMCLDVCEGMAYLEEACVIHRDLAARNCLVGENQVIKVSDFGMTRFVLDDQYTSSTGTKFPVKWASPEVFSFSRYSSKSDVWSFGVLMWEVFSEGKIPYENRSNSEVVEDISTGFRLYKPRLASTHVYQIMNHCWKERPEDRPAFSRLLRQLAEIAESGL
Description: as §1

panel of 442 kinases [3] = target: T3, panel of 442 kinases (Homo sapiens, UniProt Q13464)
T3 construct: purchased KINOMEscan
Description: as §1

T3 sequence (Q13464 whole entry): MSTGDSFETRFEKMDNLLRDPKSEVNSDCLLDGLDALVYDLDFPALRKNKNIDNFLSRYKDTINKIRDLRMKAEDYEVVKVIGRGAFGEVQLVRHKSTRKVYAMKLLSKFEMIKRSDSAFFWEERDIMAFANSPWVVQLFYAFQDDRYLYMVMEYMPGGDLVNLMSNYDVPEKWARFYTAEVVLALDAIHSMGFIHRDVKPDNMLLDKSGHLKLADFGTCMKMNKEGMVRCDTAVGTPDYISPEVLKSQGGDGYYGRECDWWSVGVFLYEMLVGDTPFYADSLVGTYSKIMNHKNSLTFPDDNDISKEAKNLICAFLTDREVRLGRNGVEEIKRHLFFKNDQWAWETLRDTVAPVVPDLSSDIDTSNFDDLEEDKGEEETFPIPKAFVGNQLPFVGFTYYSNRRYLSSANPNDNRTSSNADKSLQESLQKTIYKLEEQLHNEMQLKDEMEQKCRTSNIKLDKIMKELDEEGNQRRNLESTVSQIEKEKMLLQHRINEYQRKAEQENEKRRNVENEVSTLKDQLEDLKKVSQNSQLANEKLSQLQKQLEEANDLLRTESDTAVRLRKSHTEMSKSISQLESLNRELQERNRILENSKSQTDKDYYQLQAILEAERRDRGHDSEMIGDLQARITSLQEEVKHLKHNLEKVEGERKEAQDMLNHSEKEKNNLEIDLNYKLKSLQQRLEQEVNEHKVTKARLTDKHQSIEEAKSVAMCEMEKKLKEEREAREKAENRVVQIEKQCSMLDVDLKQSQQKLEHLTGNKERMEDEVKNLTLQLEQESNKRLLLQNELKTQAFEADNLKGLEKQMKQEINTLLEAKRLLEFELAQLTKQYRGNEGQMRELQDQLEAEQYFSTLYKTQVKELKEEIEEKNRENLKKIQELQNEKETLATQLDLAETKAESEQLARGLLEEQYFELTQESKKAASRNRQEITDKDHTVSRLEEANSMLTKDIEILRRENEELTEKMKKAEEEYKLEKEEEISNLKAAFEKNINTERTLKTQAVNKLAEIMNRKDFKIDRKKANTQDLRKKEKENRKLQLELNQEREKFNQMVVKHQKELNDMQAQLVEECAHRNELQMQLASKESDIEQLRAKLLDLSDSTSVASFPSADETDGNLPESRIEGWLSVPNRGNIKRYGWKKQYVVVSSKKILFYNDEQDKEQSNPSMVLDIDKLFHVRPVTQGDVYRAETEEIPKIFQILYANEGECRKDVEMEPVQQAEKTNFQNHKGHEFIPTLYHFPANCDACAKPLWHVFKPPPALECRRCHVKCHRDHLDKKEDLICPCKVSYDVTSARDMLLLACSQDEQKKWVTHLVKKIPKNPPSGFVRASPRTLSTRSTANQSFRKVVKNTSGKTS
T1 sequence (P21127 whole entry): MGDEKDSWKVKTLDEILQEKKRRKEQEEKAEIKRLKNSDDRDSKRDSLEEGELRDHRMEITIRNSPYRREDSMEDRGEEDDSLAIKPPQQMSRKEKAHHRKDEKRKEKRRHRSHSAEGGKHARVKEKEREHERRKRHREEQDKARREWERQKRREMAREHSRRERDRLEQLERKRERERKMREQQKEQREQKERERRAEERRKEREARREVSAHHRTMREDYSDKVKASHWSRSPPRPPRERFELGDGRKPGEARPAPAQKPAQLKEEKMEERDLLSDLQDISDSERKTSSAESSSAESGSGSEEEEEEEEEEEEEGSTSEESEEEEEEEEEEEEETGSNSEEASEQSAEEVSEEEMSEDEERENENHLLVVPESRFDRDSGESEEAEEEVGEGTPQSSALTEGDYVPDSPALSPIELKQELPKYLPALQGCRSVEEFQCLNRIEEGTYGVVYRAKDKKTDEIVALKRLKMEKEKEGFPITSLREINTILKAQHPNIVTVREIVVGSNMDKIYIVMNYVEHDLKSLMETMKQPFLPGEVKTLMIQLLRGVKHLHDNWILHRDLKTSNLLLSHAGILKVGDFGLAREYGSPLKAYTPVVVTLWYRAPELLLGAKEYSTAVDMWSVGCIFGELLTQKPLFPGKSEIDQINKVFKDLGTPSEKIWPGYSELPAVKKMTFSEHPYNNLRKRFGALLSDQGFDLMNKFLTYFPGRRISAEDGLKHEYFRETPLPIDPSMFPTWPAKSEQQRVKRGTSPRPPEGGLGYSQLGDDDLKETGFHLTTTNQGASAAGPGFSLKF

SMILES | KINOMEscan: CDC2L1 (panel of 442 kinases [1]) | KINOMEscan: ITK (panel of 442 kinases [2]) | KINOMEscan: ROCK1 (panel of 442 kinases [3])
COc1cc(C(=O)N2CCC(N3CCN(C)CC3)CC2)ccc1Nc1ncc2c(n1)N(C)c1ccccc1C(=O)N2C [15 (LRRK2-IN-1)] | 84 | 82 | 100
CCOc1cc(C(=O)N2CCC(N3CCN(C)CC3)CC2)ccc1Nc1ncc2c(n1)N(C1CCCC1)c1ccccc1C(=O)N2C [Compound 26] | 100 | 100 | 77
COc1cc(C(=O)N2CCC(N3CCN(C)CC3)CC2)ccc1Nc1ncc2c(n1)N1CCc3cccc(c31)C(=O)N2C [Compound 24] |  |  | 64
COc1cc(C(=O)N2CCC(N3CCN(C)CC3)CC2)ccc1Nc1ncc2c(n1)N(C1CCCC1)c1ccccc1C(=O)N2C [Compound 25, 11-cyclopentyl-2-((2-methoxy-4-(4-(4-methylpiperazin-1-yl)piperidine-1-carbonyl)phenyl)amino)-5-methyl-5H-benzo[e]pyrimido[5,4-b][1,4]diazepin-6(11H)-one] | 81 | 100 | 74

— publication PMC3914206
